Laboratory results as given in patent US9120776B2, “Condensed heterocyclic compound” (Takeda Pharmaceutical Company Limited, priority 2011, dated 2015).
Where two headings read alike, the source gives them in different places.

Experiments:
RORγt [1] = biological target: T1, RORγt (Homo sapiens, UniProt P51449); experiment: Jurkat Reporter Test (human IL-17 ROR response element luciferase, RORγt vector); type: cell-based; conditions: read-out: inhibitory rate (%)
T1 sequence (P51449 1-497 isoform P51449-2): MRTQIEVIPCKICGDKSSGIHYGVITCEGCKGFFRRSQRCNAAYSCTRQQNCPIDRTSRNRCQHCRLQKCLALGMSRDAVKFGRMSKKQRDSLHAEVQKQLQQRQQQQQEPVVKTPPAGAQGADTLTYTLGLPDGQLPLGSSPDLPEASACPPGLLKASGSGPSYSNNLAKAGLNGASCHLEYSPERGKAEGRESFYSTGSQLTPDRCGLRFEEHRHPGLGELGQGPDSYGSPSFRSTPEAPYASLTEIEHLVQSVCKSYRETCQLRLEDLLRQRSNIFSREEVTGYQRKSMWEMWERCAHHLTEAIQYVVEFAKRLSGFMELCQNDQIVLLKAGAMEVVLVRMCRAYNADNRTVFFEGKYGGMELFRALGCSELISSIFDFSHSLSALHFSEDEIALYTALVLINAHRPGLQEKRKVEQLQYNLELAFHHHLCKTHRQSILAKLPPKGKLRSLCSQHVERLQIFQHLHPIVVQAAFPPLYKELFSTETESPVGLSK
Description: The Jurkat cells used for the reporter test were cultured in a culture medium (RPMI (Invitrogen), 10% FCS (AusGeneX), 100 U/mL penicillin, 100 μg/mL streptomycin). On the day of the test, 4×10^7 cells were recovered by a centrifugal operation (1000 rpm, 5 min.) and suspended in PBS (phosphate buffered saline) (Invitrogen). Thereafter, the cells were recovered again by a centrifugal operation, and suspended in 2 mL of R buffer (NEON transfection kit, Invitrogen). […] Gene transfer was performed by Electroporation apparatus (NEON, Invitrogen) under the conditions of pulse voltage 1350 V, interval 10 milliseconds, number of times 3. The cells after gene transfer were suspended in 40 mL of a reaction medium (RPMI, 10% Lipid reduced FCS (HyClone), 10 mM HEPES (pH 7.5), 100 U/mL penicillin, 100 μg/mL streptomycin, 5 μM lovastatin), and plated in a 96 well plate by 90 μL each. A test compound diluted with the reaction medium was added by 10 μL each, and the cells were cultured overnight in an incubator. Bright-Glo (Promega) was added by 100 μL each, and the mixture was stirred at room temperature for 10 min, and the luminescence level was measured by Envision (PerkinElmer).

RORγt [2] = biological target: T1, RORγt; experiment: RORγt Binding Test (TR-FRET, fluorescent-labeled cholesterol); parameters: histidine tag (implied by the Histidine Detection Kit); conditions: binding inhibitory rate of fluorescent-labeled cholesterol to RORγt at test compound 1 μM
Description: The binding activity of the test compound to RORγt was measured by a time resolved fluorescence resonance energy transfer method (TR-FRET) utilizing histidine-tagged RORγt, fluorescent-labeled cholesterol (BODIPY-cholesterol, AVIVA) and terbium-labeled anti-histidine tag antibody (Invitrogen). First, a test compound diluted with an assay buffer (20 mM Tris-HCl (pH 7.5), 100 mM NaCl, 1 mM DTT, 0.1% BSA) was added to a 384 well plate by 3 μL each. Then, RORγt diluted with an assay buffer to 240 nM was added by 3 μL each, after which fluorescent-labeled cholesterol diluted with the assay buffer to 12 μM was added by 3 μL each, and the mixture was stood at room temperature for 20 min. Thereafter, a terbium-labeled anti-histidine tag antibody diluted with the assay buffer to 8 nM was added by 3 μL each. The mixture was stood at room temperature for 20 min, and fluorescence intensity (excitation wavelength 320 nm, fluorescence wavelength 520 nm, delay time 100 microseconds) was measured by Envision (PerkinElmer).

RORγt [3] = biological target: T1, RORγt; experiment: Cofactor Recruitment Test (Alpha Screen, biotinylated SRC-1 peptide); type: biochemical; parameters: histidine tag (implied by the Histidine Detection Kit); conditions: signal value inhibitory rate at test compound 1 μM
Description: Cofactor recruitment test was performed by Alpha Screen (Histidine Detection Kit, PerkinElmer) method. First, a test compound diluted with an assay buffer (50 mM Tris-HCl (pH 7.5), 50 mM KCl, 1 mM DTT, 0.1% BSA) was added to a 384 well plate by 5 μL each. […] The mixture was stood in a dark place for 1 hr, and the signal value was measured by Envision (PerkinElmer).

Th17 cells = experiment: Mouse Th17 Cell Differentiation Test (IL-17A in culture supernatant, ELISA); type: cell-based; conditions: inhibitory rate at 10 μM of test compound, mouse CD4 positive naive T cells, 4 days, IL-17A by ELISA; for inhibition at 10 µM: 96 h
Description: CD4 positive naive T cells were collected from the spleen cells of BALB/c mice (female, 8-11w, Charles River Laboratories Japan, Inc.) using CD4+CD62L+ T Cell Isolation kit II (Miltenyi Biotec). The CD4 positive naive T cells in a 96 well plate (3×10^5 cells/well) were stimulated (37° C. for culture) with anti-mouse CD3ε antibody (Bio X cell) (10 μg/mL, solid phase) and anti-CD28 antibody (Bio X cell) (5 μg/mL) for 4 days in the presence of anti-IFN-γ antibody (BioLegend), anti-IL-4 antibody (BioLegend), anti-IL-2 antibody (BioLegend), IL-6, TGF-β and IL-23 to differentiate into Th17 cells. The compound was dissolved in DMSO and then added thereto. The cells were cultured under these conditions for 4 days, and differentiation of the Th17 cells was evaluated by using the concentration of IL-17A, which was measured by ELISA, in the culture supernatant obtained by centrifugation.

human PBMC = experiment: IL17 Production Test in Human PBMC; type: cell-based; conditions: 72 h, inhibitory rate at 10 μM of test compound, anti-CD3/CD28 stimulation, 3 days, IL-17A by ELISA
Description: Peripheral blood mononuclear cells (PBMC) collected from human peripheral blood by a density gradient centrifugation method were stimulated by Dynabeads (registered trade mark; anti-CD3/CD28 antibody) and cultured at 37° C. for 3 days. The compound was dissolved in DMSO and then added thereto. After culture for 3 days under such conditions, the concentration of IL-17A in the culture supernatant obtained by centrifugation was measured by ELISA to evaluate the effect of the compound on IL-17 production.

[4] = luminescence level inhibitory rate at test compound 3 μM, Jurkat cells

CCn1c2ccccc2c2cc(NC(=O)CSCC(=O)Nc3ccc(C#N)cc3)ccc21 [Example 24, 2-({2-[(4-cyanophenyl)amino]-2-oxoethyl}sulfanyl)-N-(9-ethyl-9H-carbazol-3-yl)acetamide]
inhibition at 3 µM (RORγt [1]; [4]): 100% | inhibition at 1 µM (RORγt [2]): 98.9% | inhibition at 1 µM (RORγt [3]): 101% | inhibition at 10 µM (Th17 cells): 96%

CCn1c2ccccc2c2cc(NC(=O)CC(C)CC(=O)Nc3ccc(C#N)c(Cl)c3)ccc21 (stereo not shown) [Example 25, N-(3-chloro-4-cyanophenyl)-N′-(9-ethyl-9H-carbazol-3-yl)-3-methylpentanediamide]
inhibition at 10 µM (Th17 cells; Mus musculus, CD4 positive): 96.1%

CCn1c2ccccc2c2cc(NC(=O)CC(C)CC(=O)Nc3ccc(C#N)c(Cl)c3)ccc21 (stereo not shown) [Example 26, N-(3-chloro-4-cyanophenyl)-N′-(9-ethyl-9H-carbazol-3-yl)-3-methylpentanediamide]
inhibitory rate (%) (Th17 cells; 10 µM): 96.1%

CCn1c2ccccc2c2cc(NC(=O)C[S+]([O-])CC(=O)Nc3ccc(C#N)cc3)ccc21 (stereo not shown) [Example 34, 2-((2-((4-cyanophenyl)amino)-2-oxoethyl)sulfinyl)-N-(9-ethyl-9H-carbazol-3-yl)acetamide]
inhibition at 3 µM (RORγt [1]; [4]): 82.7% | inhibition at 1 µM (RORγt [2]): 94.6% | inhibition at 1 µM (RORγt [3]): 103% | inhibition at 10 µM (Th17 cells): 96.3%

CCn1c2ccccc2c2cc(NC(=O)CC(C)CCOc3ccc(C#N)c(Cl)c3)ccc21 (stereo not shown) [Example 38, 5-(3-chloro-4-cyanophenoxy)-N-(9-ethyl-9H-carbazol-3-yl)-3-methylpentanamide]
inhibition at 3 µM (RORγt [1]; [4]): 99.4% | inhibition at 1 µM (RORγt [2]): 91.9% | inhibition at 1 µM (RORγt [3]): 102%

CCn1c2ccccc2c2cc(NC(=O)CC(CC(=O)Nc3ccc(C#N)c(Cl)c3)c3ccccc3)ccc21 (stereo not shown) [Example 39, N-(3-chloro-4-cyanophenyl)-N′-(9-ethyl-9H-carbazol-3-yl)-3-phenylpentanediamide]
inhibition at 3 µM (RORγt [1]; Jurkat): 93.2% | inhibition at 1 µM (RORγt [2]): 91.4% | inhibition at 1 µM (RORγt [3]): 102%

CCn1c2ccccc2c2cc(NC(=O)C3CCC3C(=O)Nc3ccc(C#N)c(Cl)c3)ccc21 (stereo not shown) [Example 40, N-(3-chloro-4-cyanophenyl)-N′-(9-ethyl-9H-carbazol-3-yl)cyclobutane-1,2-dicarboxamide]
inhibition at 3 µM (RORγt [1]; Jurkat): 99.3% | inhibition at 1 µM (RORγt [2]): 96.3% | inhibition at 1 µM (RORγt [3]): 102%

CCn1c2ccccc2c2cc(NC(=O)CC(C)CC(=O)Nc3ccc(C#N)c(OC)c3)ccc21 (stereo not shown) [Example 41, N-(4-cyano-3-methoxyphenyl)-N′-(9-ethyl-9H-carbazol-3-yl)-3-methylpentanediamide]
inhibition at 3 µM (RORγt [1]; [4]): 96.4% | inhibition at 1 µM (RORγt [2]): 93.4% | inhibition at 1 µM (RORγt [3]): 100%

CCn1c2ccccc2c2cc(NC(=O)C(C)CCC(=O)Nc3ccc(C#N)c(Cl)c3)ccc21 (stereo not shown) [Example 42, N^5-(3-chloro-4-cyanophenyl)-N^1-(9-ethyl-9H-carbazol-3-yl)-2-methylpentanediamide]
inhibition at 3 µM (RORγt [1]; Jurkat): 104% | inhibition at 1 µM (RORγt [2]): 101% | inhibition at 1 µM (RORγt [3]): 101%

CCn1c2ccccc2c2cc(NC(=O)CCC(C)C(=O)Nc3ccc(C#N)c(Cl)c3)ccc21 (stereo not shown) [Example 43, N^1-(3-chloro-4-cyanophenyl)-N^5-(9-ethyl-9H-carbazol-3-yl)-2-methylpentanediamide]
inhibition at 3 µM (RORγt [1]; Jurkat): 104% | inhibition at 1 µM (RORγt [2]): 100% | inhibition at 1 µM (RORγt [3]): 102%

CCn1c2ccccc2c2cc(NC(=O)CC(C)CCOc3ccc(C#N)c(C)c3)ccc21 (stereo not shown) [Example 44, 5-(4-cyano-3-methylphenoxy)-N-(9-ethyl-9H-carbazol-3-yl)-3-methylpentanamide]
inhibition at 3 µM (RORγt [1]; [4]): 77.8% | inhibition at 1 µM (RORγt [2]): 62.9% | inhibition at 1 µM (RORγt [3]): 98.7%

CCn1c2ccccc2c2cc(C(=O)NCC(C)CC(=O)Nc3ccc(C#N)c(Cl)c3)ccc21 (stereo not shown) [Example 48, N-{4-[(3-chloro-4-cyanophenyl)amino]-2-methyl-4-oxobutyl}-9-ethyl-9H-carbazole-3-carboxamide]
inhibition at 3 µM (RORγt [1]; Jurkat): 115% | inhibition at 1 µM (RORγt [2]): 104% | inhibition at 1 µM (RORγt [3]): 106% | inhibition at 10 µM (human PBMC): 97.6% | inhibition at 10 µM (Th17 cells; Mus musculus, CD4 positive): 96.9%

CCn1c2ccccc2c2cc(NC(=O)CC(C)CC(=O)Nc3ccc(C#N)nc3)ccc21 (stereo not shown) [Example 49, N-(6-cyanopyridin-3-yl)-N′-(9-ethyl-9H-carbazol-3-yl)-3-methylpentanediamide]
inhibition at 3 µM (RORγt [1]; [4]): 109% | inhibition at 1 µM (RORγt [2]): 93.9% | inhibition at 1 µM (RORγt [3]): 104%

CCn1c2ccccc2c2cc(NC(=O)CC(C)CC(=O)Nc3ccc(C#N)cn3)ccc21 (stereo not shown) [Example 50, N-(5-cyanopyridin-2-yl)-N′-(9-ethyl-9H-carbazol-3-yl)-3-methylpentanediamide]
inhibition at 3 µM (RORγt [1]; [4]): 110% | inhibition at 1 µM (RORγt [2]): 88.8% | inhibition at 1 µM (RORγt [3]): 103%

CCn1c2ccccc2c2cc(NC(=O)CC(C)CCOc3ccc(C#N)c(C#N)c3)ccc21 (stereo not shown) [Example 55, 5-(3,4-dicyanophenoxy)-N-(9-ethyl-9H-carbazol-3-yl)-3-methylpentanamide]
inhibition at 3 µM (RORγt [1]; [4]): 102% | inhibition at 1 µM (RORγt [2]): 82.2% | inhibition at 1 µM (RORγt [3]): 104%

CCn1c2ccccc2c2cc(NC(=O)CC(C)CC(=O)Nc3ccc(C#N)cc3)ccc21 (stereo not shown) [Step 1 of Example 15, N^1-(4-cyanophenyl)-N^5-(9-ethyl-9H-carbazol-3-yl)-3-methylpentanediamide]
inhibition at 10 µM (Th17 cells): 93.2%
